# Measured values as given in US11911413B2, “Methods and compositions for the treatment of pain and/or inflammation” (Proteobioactives Pty Limited, priority 2018, dated 2024).
# Legend:
# patients with hand OA = test: Double-blind comparator clinical trial Pentabrex vs celecoxib, hand OA (Example 7); format: in vivo, human
# From the text: (§1) A prospective, dose ranging, double-blind, comparator clinical trial to evaluate the tolerability and efficacy of Pentabrex™, (Proteobioactives Pty Ltd, Balgowlah, NSW, Australia) compared to celecoxib, for the relief of symptoms in elderly patients with OA of the hand and knee conducted at the Subiaco Rheumatology Clinic, Subiaco, Perth, WA, Australia.
# (§2) Thirty three male and female patients with symptomatic hand or knee OA were obtained from referrals sent by general medical practitioners located in Perth (Western Australia) suburbs. […] To be included in the clinical trial, patients had to be 50 years of age or older and have an OA grade of 3-4 (Kellgren J H, Lawrence J S. Radiological assessment of osteoarthrosis. Annals Rheumatic Dis.1957; 16:494-502) that had been symptomatic for at least 6 months prior to their inclusion. If a patient had pain in both knees or both hands, the more painful knee or hand was the joint used for assessment. If patients had both hand and knee OA each most painful joint was assessed separately.
# (§3) Patients with rheumatoid arthritis or any other rheumatic condition that required the continuous administration of a second line rheumatic agent such as methotrexate, steroid or cytokine antagonist, had current bleeding diathesis or were receiving treatment with blood thinners (such as warfarin), or had any significant medical conditions involving the liver, kidney, or their motor or nervous systems were excluded from the trial.
# (§4) Although patients were requested not to consume additional analgesics or NSAIDs over the duration of the study, if they found this to be too difficult because of the unacceptable level of pain they experienced, they were required to document the drugs and quantities they used for relief of pain in a six week daily diary that supplied with the clinical trial test package manufactured by the compounding chemist (Kingsway, Brookvale NSW 2100, Australia). Failure to complete the daily dairies over the duration of the 6 week trial and return the used blister pack to the examining clinician at the final consultation would be taken as to non-compliance with the trial protocol. The diary requirement was included as part of patient assessment for the duration of the trial because of the known non-compliance of patients taking oral medications over extended periods of time (van Berge Henegouwen MTH, van Driel H F, Kasteleijn-Nolst DGA. A patient diary as a tool to improve medicine compliance. Pharm World Sci. 1999; 21: 21-24, Farmer K C, Methods for measuring and monitoring medication regimen adherence in clinical trials and clinical practice. Clinical […]
# At the commencement of the trial details of the patient's age, height, weight, location of the most painful joints, duration of symptoms and grade of OA were recorded. […]
# patients with knee OA = test: Double-blind comparator clinical trial Pentabrex vs celecoxib, knee OA (Example 7); format: in vivo, human
# From the text: as §1, §2, §3, §4
# For patients with OA of the knee joints their VAS pain scores were determined for their pain at rest, pain on walking and early morning stiffness. […]
# [1] = tested on: patients with OA of the hand and knee; test: Double-blind comparator clinical trial, hand and knee OA combined (Example 7); format: in vivo, human; conditions: daily for 6 weeks
# From the text: as §1, §2, §4
# The same clinical parameters that were determined for all patients at baseline were assessed at the final examination six weeks later. The patient's diaries and blister packs returned were also examined and the number of supplementary analgesics they consumed was recorded. Any adverse side effects noted over the duration of the trial were also recorded. […]
# [2] = 223 cases in the United States, FDA memorandum 2005; cited from earlier work
# [3] = tested on: postmenopausal women with mild to moderate osteoarthritis; conditions: cited from earlier work
# [4] = tested on: elderly subjects with high blood viscosity and filterability; conditions: 15 elderly subjects; IM 50 mg NaPPS twice daily for a week; cited from earlier work
# [5] = tested on: leukocytes isolated from the blood of these patients; conditions: seven days after NaPPS administration, cited from earlier work
# [6] = tested on: patients with symptomatic knee OA; conditions: NaPPS 3 mg/kg, 4 weekly IM injections, cited from earlier work
# [7] = tested on: Japanese patients with mild knee OA; conditions: weekly subcutaneous 2 mg/kg NaPPS over 6 weeks; assessed to 52 weeks; cited from earlier work
# [8] = single oral dose [3H]PPS with 300 or 450 mg un-labelled PPS; healthy female subjects; cited from earlier work
# [9] = tested on: patients with bone marrow lesions (oedema) diagnosed by MRI; conditions: PPS administered systemically (IM or SC); cited from earlier work
# [10] = Pentabrex 350 mg or celecoxib 175 mg daily for 6 weeks
# [11] = Pentabrex n = 5, celecoxib n = 4, daily for 6 weeks
# [12] = Pentabrex n = 5, celecoxib n = 9, daily for 6 weeks
molecule,measurement,setting,value
"Cc1ccc(-c2cc(C(F)(F)F)nn2-c2ccc(S(N)(=O)=O)cc2)cc1 [Celecoxib, 4-[5-(4-methylphenyl)-3-(trifluoromethyl)pyrazol-1-yl] benzene sulfonamide]","Negative response, % of patients",patients with hand OA; [10],75%
same,"Positive response, % of patients",patients with hand OA; [10],25%
same,"Negative response, number of patients",patients with hand OA; [11],3
same,"Positive response, number of patients",patients with hand OA; [11],1
same,"Negative response, % of patients",patients with knee OA; [10],23.33%
same,"Positive response, % of patients",patients with knee OA; [10],77.77%
same,"Negative response, number of patients",patients with knee OA; [12],2
same,"Positive response, number of patients",patients with knee OA; [12],7
same,"Negative response, % of patients",[1],38.46%
same,"Negative response, number of patients",[1],5
same,"Positive response, % of patients",[1],61.54%
same,"Positive response, number of patients",[1],8
same,thrombotic or embolic events associated with the drug,[2],102 cases
"CS(=O)(=O)c1ccc(C2=C(c3ccccc3)C(=O)OC2)cc1 [rofecoxib, 4-(4-methylsulfonylphenyl)-3-phenyl-5H-furan-2-one]",thrombotic or embolic events associated with the drug,[2],99 cases
"[2R,3R,4S,5R)-2-hydroxy-5-[(2S,3R,4S,5R)-5-hydroxy-3,4-disulfo-oxyoxan-2-yl]oxy-3-sulfooxyoxan-4-yl] hydrogen sulfate [NaPPS]",peripheral blood mononuclear cell procoagulant activity (MPA),"[3]; 3 mg/kg NaPPS IM, 24 hours after administration",significantly reduced to within the normal range
same,"Plasma concentrations of lipoprotein lipase, hepatolipase, and superoxide dismutase","[3]; 3 mg/kg NaPPS IM, between 2 and 4 hours after administration",significantly elevated
same,patients reporting significant clinical improvement of their symptoms,"[3]; 4 weekly IM injections of 3 mg/kg, for up to 12 weeks after the last injection",11
same,blood viscosity and filterability,[4],significant reduction
same,concentrations of arachidonic acid-derived lipoxygenase (LOX) metabolites released from the cells,[5]; compared to leukocytes collected before,significantly decreased
same,prostaglandin metabolites generated by the COX pathways,[5]; non-stimulated leukocytes,increased
same,"pain on walking and other physical activities, such as stair climbing",[6],significantly improved
same,joint pain at rest relative to placebo controls,[6]; maintained for 20 weeks after cessation,significantly improvement
same,"joint swelling, knee flexion, pain while walking and stair climbing",[7],improved significantly
same,administered dose excreted in the faeces as intact PPS,[8],84%
same,administered dose excreted in urine in a depolymerized form,[8],6%
same,bone marrow lesions (oedema) and accompanying pain,[9],resolved the bone marrow lesions (oedema) and accompanying pain
CCc1cccc2c3c([nH]c12)C(CC)(CC(=O)O)OCC3 (stereo not drawn) [etodolac],thrombotic or embolic events associated with the drug,[2],22 cases
